{
  "source": "patent US20110053773A1",
  "about": "“METHODS OF IMPROVING NUTRITIONAL VALUE OF PLANTS” (UNIVERSITY OF TENNESSEE RESEARCH FOUNDATION, priority 2009, published 2011)",
  "key": {"kale 'Red Russian'": {"tested_on": "kale 'Red Russian'", "test": "Content analysis of kale: protein, amino acids, fiber, fatty acids, minerals (Example 4, Tables 12-14)", "format": "in vivo", "conditions": "28 DA-A", "procedure": "(§1) Greenhouse and laboratory studies were conducted to ascertain the tolerance and nutritional quality differences following postemergence applications of the insecticide chlorpyrifos, the fungicide chlorothalonil, the PGRs mepiquat-chloride and paclobutrazol, and the safeners napthalic anhydride and isoxadifen-ethyl on kale ‘Red Russian’ and basil ‘Genovese’. Visual injury was rated based on general phytotoxicity, chlorosis, and visual stunting and each measurement was based on a percent scale from 0 to 100 where 0 equals no visual response and 100 equals complete plant death. Kale and basil were both harvested approximately 4 weeks after treatments and plants were pooled over replicates for content analysis of crude protein, crude amino acid content, acid detergent fiber, neutral detergent fiber, total fatty acids, and/or key mineral content (including Na, Ca, P, Mg, K, Fe, Mn, Zn, and Cu). In addition, the amounts of key individual amino acids (aspartic acid, threonine, glutamic acid, proline, glycine, cysteine, valine, leucine, isoleucine, methionine, and lysine) and composite classifications of fatty acid (saturated fatty acids, monounsaturated fatty acids, polyunsaturated fatty acids) were also analyzed from these sub-samples for kale (Tables 10-14)."}, "basil 'Genovese'": {"tested_on": "basil 'Genovese'", "test": "Visual injury of basil after insecticide, fungicide, PGRs, safeners (Example 4)", "procedure": "as §1"}, "[1]": {"conditions": "rates g ai/ha: chlropyrifos 1120, chlorothalonil 2630, paclobutrazol 3.23, mepiquat-chloride 12.3, + NIS 0.25 % v/v"}, "[2]": {"conditions": "rates g ai/ha: chlropyrifos 3370, chlorothalonil 7900, paclobutrazol 9.7, mepiquat-chloride 37, + NIS 0.25 % v/v"}, "[3]": {"conditions": "second-listed rate g ai/ha: chlropyrifos ###, chlorothalonil ###, paclobutrazol 9.7, mepiquat-chloride 37, + NIS 0.3 % v/v"}, "[4]": {"conditions": "7 DA-A, rates g ai/ha: chlropyrifos 1120, chlorothalonil 2630, paclobutrazol 3.23, mepiquat-chloride 12.3, Isoxadifen 8, Napthalic anhydride 264, + NIS 0.25 % v/v"}, "[5]": {"conditions": "7 DA-A, rates g ai/ha: chlropyrifos 3370, chlorothalonil 7900, paclobutrazol 9.7, mepiquat-chloride 37, Isoxadifen 16, Napthalic anhydride 527, + NIS 0.25 % v/v"}, "[6]": {"conditions": "14 DA-A, rates g ai/ha: chlropyrifos 1120, chlorothalonil 2630, paclobutrazol 3.23, mepiquat-chloride 12.3, Isoxadifen 8, Napthalic anhydride 264, + NIS 0.25 % v/v"}, "[7]": {"conditions": "14 DA-A, rates g ai/ha: chlropyrifos 3370, chlorothalonil 7900, paclobutrazol 9.7, mepiquat-chloride 37, Isoxadifen 16, Napthalic anhydride 527, + NIS 0.25 % v/v"}, "[8]": {"conditions": "28 DA-A, rates g ai/ha: chlropyrifos 1120, chlorothalonil 2630, paclobutrazol 3.23, mepiquat-chloride 12.3, Isoxadifen 8, Napthalic anhydride 264, + NIS 0.25 % v/v"}, "[9]": {"conditions": "28 DA-A, rates g ai/ha: chlropyrifos 3370, chlorothalonil 7900, paclobutrazol 9.7, mepiquat-chloride 37, Isoxadifen 16, Napthalic anhydride 527, + NIS 0.25 % v/v"}},
  "data": [
    {"smiles": "CCOP(=S)(OCC)Oc1nc(Cl)c(Cl)cc1Cl", "note": "[chlropyrifos]", "values": [
      {"measurement": "Copper, Percent Increase Over the Untreated Check (on a % dry matter basis)", "setting": "kale 'Red Russian'; [1]", "value": 50, "unit": "% check"},
      {"measurement": "Iron, Percent Increase Over the Untreated Check (on a % dry matter basis)", "setting": "kale 'Red Russian'; [1]", "value": 33, "unit": "% check"},
      {"measurement": "Magnesium, Percent Increase Over the Untreated Check (on a % dry matter basis)", "setting": "kale 'Red Russian'; [1]", "value": 11, "unit": "% check"},
      {"measurement": "Manganese, Percent Increase Over the Untreated Check (on a % dry matter basis)", "setting": "kale 'Red Russian'; [1]", "value": 39, "unit": "% check"},
      {"measurement": "NDF, Percent Increase Over the Untreated Check (on a % dry matter basis)", "setting": "kale 'Red Russian'; [1]", "value": "−8", "unit": "% check"},
      {"measurement": "Phosphorous, Percent Increase Over the Untreated Check (on a % dry matter basis)", "setting": "kale 'Red Russian'; [1]", "value": 9, "unit": "% check"},
      {"measurement": "Potassium, Percent Increase Over the Untreated Check (on a % dry matter basis)", "setting": "kale 'Red Russian'; [1]", "value": 4, "unit": "% check"},
      {"measurement": "Sodium, Percent Increase Over the Untreated Check (on a % dry matter basis)", "setting": "kale 'Red Russian'; [1]", "value": 13, "unit": "% check"},
      {"measurement": "Zinc, Percent Increase Over the Untreated Check (on a % dry matter basis)", "setting": "kale 'Red Russian'; [1]", "value": 18, "unit": "% check"},
      {"measurement": "ADF, Percent Increase Over the Untreated Check (on a % dry matter basis)", "setting": "kale 'Red Russian'; [2]", "value": 9, "unit": "% check"},
      {"measurement": "Calcium, Percent Increase Over the Untreated Check (on a % dry matter basis)", "setting": "kale 'Red Russian'; [2]", "value": 0, "unit": "% check"},
      {"measurement": "Copper, Percent Increase Over the Untreated Check (on a % dry matter basis)", "setting": "kale 'Red Russian'; [2]", "value": 28, "unit": "% check"},
      {"measurement": "Iron, Percent Increase Over the Untreated Check (on a % dry matter basis)", "setting": "kale 'Red Russian'; [2]", "value": 3, "unit": "% check"},
      {"measurement": "Magnesium, Percent Increase Over the Untreated Check (on a % dry matter basis)", "setting": "kale 'Red Russian'; [2]", "value": 3, "unit": "% check"},
      {"measurement": "Manganese, Percent Increase Over the Untreated Check (on a % dry matter basis)", "setting": "kale 'Red Russian'; [2]", "value": 16, "unit": "% check"},
      {"measurement": "NDF, Percent Increase Over the Untreated Check (on a % dry matter basis)", "setting": "kale 'Red Russian'; [2]", "value": 1, "unit": "% check"},
      {"measurement": "Phosphorous, Percent Increase Over the Untreated Check (on a % dry matter basis)", "setting": "kale 'Red Russian'; [2]", "value": 7, "unit": "% check"},
      {"measurement": "Potassium, Percent Increase Over the Untreated Check (on a % dry matter basis)", "setting": "kale 'Red Russian'; [2]", "value": 1, "unit": "% check"},
      {"measurement": "Sodium, Percent Increase Over the Untreated Check (on a % dry matter basis)", "setting": "kale 'Red Russian'; [2]", "value": 45, "unit": "% check"},
      {"measurement": "Zinc, Percent Increase Over the Untreated Check (on a % dry matter basis)", "setting": "kale 'Red Russian'; [2]", "value": 10, "unit": "% check"},
      {"measurement": "Alanine, Percent Increase over the Untreated Check (on a % dry matter basis)", "setting": "kale 'Red Russian'; [3]", "value": 6, "unit": "% check"},
      {"measurement": "Aspartic acid, Percent Increase over the Untreated Check (on a % dry matter basis)", "setting": "kale 'Red Russian'; [3]", "value": 7, "unit": "% check"},
      {"measurement": "Cysteine, Percent Increase over the Untreated Check (on a % dry matter basis)", "setting": "kale 'Red Russian'; [3]", "value": 6, "unit": "% check"},
      {"measurement": "Glutamic acid, Percent Increase over the Untreated Check (on a % dry matter basis)", "setting": "kale 'Red Russian'; [3]", "value": 12, "unit": "% check"},
      {"measurement": "Glycine, Percent Increase over the Untreated Check (on a % dry matter basis)", "setting": "kale 'Red Russian'; [3]", "value": 3, "unit": "% check"},
      {"measurement": "Iso-leucine, Percent Increase over the Untreated Check (on a % dry matter basis)", "setting": "kale 'Red Russian'; [3]", "value": 6, "unit": "% check"},
      {"measurement": "Leucine, Percent Increase over the Untreated Check (on a % dry matter basis)", "setting": "kale 'Red Russian'; [3]", "value": 6, "unit": "% check"},
      {"measurement": "Lysine, Percent Increase over the Untreated Check (on a % dry matter basis)", "setting": "kale 'Red Russian'; [3]", "value": 11, "unit": "% check"},
      {"measurement": "Methionine, Percent Increase over the Untreated Check (on a % dry matter basis)", "setting": "kale 'Red Russian'; [3]", "value": 0, "unit": "% check"},
      {"measurement": "Proline, Percent Increase over the Untreated Check (on a % dry matter basis)", "setting": "kale 'Red Russian'; [3]", "value": 9, "unit": "% check"},
      {"measurement": "Threonine, Percent Increase over the Untreated Check (on a % dry matter basis)", "setting": "kale 'Red Russian'; [3]", "value": 4, "unit": "% check"},
      {"measurement": "Total Amino acids, Percent Increase over the Untreated Check (on a % dry matter basis)", "setting": "kale 'Red Russian'; [3]", "value": 7, "unit": "% check"},
      {"measurement": "Total Protein, Percent Increase over the Untreated Check (on a % dry matter basis)", "setting": "kale 'Red Russian'; [3]", "value": 5, "unit": "% check"},
      {"measurement": "Valine, Percent Increase over the Untreated Check (on a % dry matter basis)", "setting": "kale 'Red Russian'; [3]", "value": 7, "unit": "% check"},
      {"measurement": "Phytotoxicity Chlorosis", "setting": "basil 'Genovese'; [4]", "value": 8, "unit": "%"},
      {"measurement": "Phytotoxicity General", "setting": "basil 'Genovese'; [4]", "value": 2, "unit": "%"},
      {"measurement": "Phytotoxicity Stunting", "setting": "basil 'Genovese'; [4]", "value": 5, "unit": "%"},
      {"measurement": "Phytotoxicity Chlorosis", "setting": "basil 'Genovese'; [5]", "value": 10, "unit": "%"},
      {"measurement": "Phytotoxicity General", "setting": "basil 'Genovese'; [5]", "value": 2, "unit": "%"},
      {"measurement": "Phytotoxicity Stunting", "setting": "basil 'Genovese'; [5]", "value": 13, "unit": "%"},
      {"measurement": "Phytotoxicity Chlorosis", "setting": "basil 'Genovese'; [6]", "value": 3, "unit": "%"},
      {"measurement": "Phytotoxicity General", "setting": "basil 'Genovese'; [6]", "value": 7, "unit": "%"},
      {"measurement": "Phytotoxicity Stunting", "setting": "basil 'Genovese'; [6]", "value": 10, "unit": "%"},
      {"measurement": "Phytotoxicity Chlorosis", "setting": "basil 'Genovese'; [7]", "value": 8, "unit": "%"},
      {"measurement": "Phytotoxicity General", "setting": "basil 'Genovese'; [7]", "value": 2, "unit": "%"},
      {"measurement": "Phytotoxicity Stunting", "setting": "basil 'Genovese'; [7]", "value": 10, "unit": "%"},
      {"measurement": "Phytotoxicity Chlorosis", "setting": "basil 'Genovese'; [8]", "value": 5, "unit": "%"},
      {"measurement": "Phytotoxicity General", "setting": "basil 'Genovese'; [8]", "value": 10, "unit": "%"},
      {"measurement": "Phytotoxicity Stunting", "setting": "basil 'Genovese'; [8]", "value": 8, "unit": "%"},
      {"measurement": "Phytotoxicity Chlorosis", "setting": "basil 'Genovese'; [9]", "value": 7, "unit": "%"},
      {"measurement": "Phytotoxicity General", "setting": "basil 'Genovese'; [9]", "value": 2, "unit": "%"},
      {"measurement": "Phytotoxicity Stunting", "setting": "basil 'Genovese'; [9]", "value": 12, "unit": "%"}
    ]}
  ]
}
